Molecular target: Prothrombin (Homo sapiens, UniProt P00734)
Test: Anti- Thrombin activity using standard chromogenic assay

## COc1cc(OCC2CCN(C(=N)N)CC2)cc(OS(=O)(=O)c2ccccc2Cl)c1
  Ki: 0.044 µM

## COC(=O)c1cc(OCC2CCN(C(=N)N)CC2)cc(OS(=O)(=O)c2ccccc2Cl)c1
  Ki: 3.7 µM

## Cc1cc(OCC2CC[N+](=C([NH-])N)CC2)cc(OS(=O)(=O)c2ccc([N+](=O)[O-])cc2)c1 (stereo not given)
  Ki: 0.327 µM

## Cc1cc(OCC2CCN(C(=N)N)CC2)cc(OS(=O)(=O)c2cccc(C(F)(F)F)c2)c1
  Ki: 0.445 µM

## Cc1cc(OCC2CCN(C(=N)N)CC2)cc(OS(=O)(=O)c2ccccc2)c1
  Ki: 0.032 µM

## Cc1cc(OCC2CC[N+](=C([NH-])N)CC2)cc(OS(=O)(=O)c2ccccc2[N+](=O)[O-])c1 (stereo not given)
  Ki: 0.016 µM

## Cc1cc(OCC2CCN(C(=N)N)CC2)cc(OS(=O)(=O)c2cccc(Cl)c2)c1
  Ki: 0.039 µM

## N=C(N)N1CCC(COc2cc(Cl)cc(OS(=O)(=O)c3ccccc3Cl)c2)CC1
  Ki: 0.03 µM

## Cc1cc(OCC2CCN(C(=N)N)CC2)cc(OS(=O)(=O)c2cccc3ccccc23)c1
  Ki: 0.035 µM

## N=C(N)N1CCC(COc2cc(CO)cc(OS(=O)(=O)c3ccccc3Cl)c2)CC1
  Ki: 0.49 µM

## Cc1cc(OCC2CCN(C(=N)N)CC2)cc(OS(=O)(=O)c2ccccc2C(F)(F)F)c1
  Ki: 0.014 µM

## CCc1cc(OCC2CCN(C(=N)N)CC2)cc(OS(=O)(=O)c2ccccc2Cl)c1
  Ki: 0.039 µM

## Cc1cc(OCC2CCN(C(=N)N)CC2)cc(OS(=O)(=O)c2ccc(N)cc2)c1
  Ki: 0.399 µM

## Cc1cc(OCC2CCN(C(=N)N)CC2)cc(OS(=O)(=O)c2cccc(C)c2)c1
  Ki: 0.036 µM

## N=C(N)N1CCC(COc2cccc(OS(=O)(=O)c3ccccc3Cl)c2)CC1
  Ki: 0.19 µM

## COC(=O)c1ccccc1S(=O)(=O)Oc1cc(C)cc(OCC2CCN(C(=N)N)CC2)c1
  Ki: 0.028 µM

## Cc1cc(OCC2CCN(C(=N)N)CC2)cc(OS(=O)(=O)c2cccc(Cl)c2Cl)c1
  Ki: 0.022 µM

## Cc1cc(OCC2CCN(C(=N)N)CC2)cc(OS(=O)(=O)c2ccccc2N)c1
  Ki: 0.052 µM

## Cc1cc(OCC2CC[N+](=C([NH-])N)CC2)cc(OS(=O)(=O)c2cccc([N+](=O)[O-])c2)c1 (stereo not given)
  Ki: 0.115 µM

## Cc1cc(OCC2CCN(C(=N)N)CC2)cc(OS(=O)(=O)c2cccc(N)c2)c1
  Ki: 0.032 µM
